The values that follow come from article PMC10973839, “CHF6297: a novel potent and selective p38 MAPK inhibitor with robust anti-inflammatory activity and suitable for inhaled pulmonary administration as dry powder” (Frontiers in Pharmacology, 2024).

The subject of experiment [1] is i.v. LPS-induced TNF-α in blood. The experiment in a line: Intravenous LPS-induced TNF-α release in rat blood. Conditions: 0.3 mg/kg lactose-blended dry powder via inhalation, 2 h before i.v. LPS (0.3 mg/kg). Format: in vivo, rats.
Experiment [2] has as its target T1, human p38δ (Homo sapiens, UniProt O15264).
T1 construct: GST; purchased Invitrogen
T1 sequence (O15264 1-365): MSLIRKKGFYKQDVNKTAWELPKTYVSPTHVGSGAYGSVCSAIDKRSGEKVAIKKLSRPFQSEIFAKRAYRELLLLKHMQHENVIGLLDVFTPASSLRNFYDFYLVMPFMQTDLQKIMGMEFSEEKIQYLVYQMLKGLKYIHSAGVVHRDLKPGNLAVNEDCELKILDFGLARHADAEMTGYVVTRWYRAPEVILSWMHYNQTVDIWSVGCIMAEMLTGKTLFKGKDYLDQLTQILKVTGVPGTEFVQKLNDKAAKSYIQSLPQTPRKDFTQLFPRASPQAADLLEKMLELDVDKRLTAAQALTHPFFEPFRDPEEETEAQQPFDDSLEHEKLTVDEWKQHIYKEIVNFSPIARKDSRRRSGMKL
The experiment can be described thus: AlphaScreen kinase activity assay, human p38δ. Format: biochemical. The method, then: (§1) The inhibitory activity of CHF6297 was determined using an AlphaScreen® (PerkinElmer)-based kinase activity assay as previously described ([Armani et al., 2022]). Kinase reactions consisted of 25 mM 4-(2-hydroxyethyl)-1-piperazine ethanesulfonic acid (HEPES), pH 7.5; 10 mM MgCl2; 100 μM Na3VO4; 2 mM DTT; 0.05 mg/mL Tween^TM 20; 100 pM solution of p38α, p38β, p38δ, or p38γ (Invitrogen); 1% DMSO; and 0.3 μg/mL ATF-2 fusion protein (New England Biolabs). Compounds were incubated under these conditions for 2 h, at 25°C, prior to the initiation of kinase activity by the addition of 250 μM ATP. […] Detection was performed by measuring luminescence following the addition of AlphaScreen donor beads (PerkinElmer, 6765300) and Protein A AlphaScreen acceptor beads (PerkinElmer, 6760137), both at a final concentration of 20 μg/mL. IC50 values were determined from concentration–response curves. […]
(§2) CHF6297 was tested in biochemical enzymatic assays to determine its potency as an inhibitor of human p38α (MAPK14) and of the other human p38 isoforms, p38β (MAPK11), p38γ ([…]), and p38δ ([…]) ([Armani et al., 2022]). Activity in the primary screening assay was determined using AlphaScreen technology, in which a peptide (ATF2) is phosphorylated by the appropriate GST-tagged p38 protein isoform in the presence of CHF6297 at concentrations from semi-logarithmic dilutions. […]

For experiment [3], the target named is T2, human p38γ (Homo sapiens, UniProt P53778).
T2 construct: GST; purchased Invitrogen
T2 sequence (P53778 1-367): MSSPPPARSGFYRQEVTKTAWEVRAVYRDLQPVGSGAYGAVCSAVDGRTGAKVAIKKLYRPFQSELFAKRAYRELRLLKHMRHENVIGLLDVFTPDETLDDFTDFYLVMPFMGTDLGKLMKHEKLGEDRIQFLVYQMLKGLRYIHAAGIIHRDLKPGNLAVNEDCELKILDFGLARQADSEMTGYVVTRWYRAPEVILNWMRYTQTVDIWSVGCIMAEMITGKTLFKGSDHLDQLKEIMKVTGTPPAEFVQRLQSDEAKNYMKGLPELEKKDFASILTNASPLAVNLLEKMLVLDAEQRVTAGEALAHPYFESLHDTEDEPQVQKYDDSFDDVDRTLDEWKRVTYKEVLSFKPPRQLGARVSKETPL
The experiment in a line: KINOMEscan competition binding assay (DiscoverX), p38γ. Conditions: read-out: Kd (mean ± s.d.). From the text:
(§3) The KINOMEscan® platform (DiscoverX) was used, which uses a novel and proprietary active site-directed competition binding assay to quantitatively measure the interactions between human p38 isoforms and the target compound.

In experiment [4] the target is T3, human p38α (Homo sapiens, UniProt Q16539).
T3 construct: purchased DiscoverX
T3 sequence (Q16539 whole entry): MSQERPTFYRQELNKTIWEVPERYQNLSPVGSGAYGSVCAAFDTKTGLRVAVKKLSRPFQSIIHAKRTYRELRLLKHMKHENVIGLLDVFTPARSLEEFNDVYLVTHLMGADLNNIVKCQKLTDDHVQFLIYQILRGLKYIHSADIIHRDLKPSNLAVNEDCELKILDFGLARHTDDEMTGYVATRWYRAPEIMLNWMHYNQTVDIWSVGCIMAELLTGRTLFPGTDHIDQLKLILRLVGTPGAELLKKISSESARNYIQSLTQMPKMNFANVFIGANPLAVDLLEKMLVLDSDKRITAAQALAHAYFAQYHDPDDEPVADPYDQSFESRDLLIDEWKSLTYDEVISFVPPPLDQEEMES
The experiment in a line: KINOMEscan competition binding assay (DiscoverX), p38α. Conditions: read-out: Kd (mean ± s.d.).
Excerpt: as §3

Experiment [5] addresses T2, human p38γ. The experiment in a line: AlphaScreen kinase activity assay, human p38γ. In kind it is biochemical. The procedure:
as §1, §2

For experiment [6], the system named is BEAS-2B. The experiment in a line: TNF-α-evoked IL-8 release. Conditions: TNF-α 1 ng/mL; compared with the CSE-evoked assay. In kind it is cell-based, human.
Experiment [7] deals with T1, human p38δ. The experiment in a line: KINOMEscan competition binding assay (DiscoverX), p38δ. Conditions: read-out: Kd (mean ± s.d.).
Excerpt: as §3

The target in experiment [8] is T4, human p38β (Homo sapiens, UniProt Q15759).
T4 construct: purchased DiscoverX
T4 sequence (Q15759 whole entry): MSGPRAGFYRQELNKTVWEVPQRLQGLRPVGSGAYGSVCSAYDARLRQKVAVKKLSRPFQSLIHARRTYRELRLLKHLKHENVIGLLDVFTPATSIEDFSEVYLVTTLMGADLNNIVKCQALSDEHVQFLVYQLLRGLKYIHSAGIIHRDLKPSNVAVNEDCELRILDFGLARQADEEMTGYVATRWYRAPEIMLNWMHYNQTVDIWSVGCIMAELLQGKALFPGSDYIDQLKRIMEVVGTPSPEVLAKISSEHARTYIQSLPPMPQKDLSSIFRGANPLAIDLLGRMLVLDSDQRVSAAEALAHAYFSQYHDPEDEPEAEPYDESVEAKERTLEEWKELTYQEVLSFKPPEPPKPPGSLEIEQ
The experiment in a line: KINOMEscan competition binding assay (DiscoverX), p38β. Conditions: read-out: Kd (mean ± s.d.).
Excerpt: as §3

[9] abbreviates: n = 3, read-out: IC50 (mean ± s.d.).

In the case of `C[C@H]1CCCCN1c1nnc2ccc(O[C@@H]3CC[C@H](NC(=O)Nc4cc(C(C)(C)C)nn4-c4cnn(CCN(C)C)c4)c4ccccc43)cn12` [CHF6297], the “effect on TNF-α levels in blood” value in experiment [1] is “no significant inhibition of TNF-α levels”. The “IC50 fold-difference vs. human p38α” value is on record as >7,000 in experiment [2] and 6,750 in experiment [5]. In addition, the IC50 was above 1000 nM in experiment [2] (setting [9]) and 945 ± 58 nM in experiment [5] (setting [9]). Moreover, the Kd is above 1000 nM in experiment [3], 0.24 ± 0.06 nM in experiment [4], above 1000 nM in experiment [7] and 1.11 ± 0.6 nM in experiment [8]. Moreover, the “potency against IL-8 release evoked by TNF-α” value in experiment [6] is “comparable potency”.
